Results from patent US20250230462A1, “PPO2 POLYPEPTIDE HAVING TOLERANCE TO PPO INHIBITOR HERBICIDE AND APPLICATION” (priority 2022, published 2025).

Experiments:
[1] = test system: rice seedlings edited at the OsPPO2 L422M/F442M site and wild-type strain; assay: Tolerance of gene-edited homozygous OsPPO2 L422M/F442M rice seedlings (4-leaf stage)
[2] = test system: Arabidopsis thaliana overexpressing rice OsPPO2 WT or L422M/F442M; assay: Resistance test of Arabidopsis thaliana seeds overexpressing rice OsPPO2 on MS media containing PPO inhibitor herbicides; assay type: in vivo; settings: for tolerance of L422M/F442M overexpression relative to overexpression of the wild type PPO2: FIGS. 4-6, different concentrations; for resistance of plants at higher application concentrations: 2 μM, 1 μM and 1 μM (compound A, flumioxazin, saflufenacil respectively); for tolerance/resistance of plants compared with wild-type Arabidopsis thaliana: plants overexpressing OsPPO2 L422M/F442M and OsPPO2 WT, levels similar at 50 nM, 10 nM and 40 nM (compound A, flumioxazin, saflufenacil respectively)
Experimental: In order to rapidly verify the tolerance of rice OsPPO2 L422M/F442M mutants to different compounds, vectors for overexpressing wild-type and mutant rice PPO2 genes were constructed by conventional methods and overexpressed in Arabidopsis thaliana.
The obtained Arabidopsis thaliana seeds overexpressing rice OsPPO2 mutants and wild types were tested for resistance on MS media (petri dishes) that contained PPO inhibitor herbicidal compounds of various concentrations.

[3] = overexpressing OsPPO2 L422M/F442M

With CCOC(=O)C1(C)CC(c2cc(-n3c(=O)cc(C(F)(F)F)n(C)c3=O)c(F)cc2Cl)=NO1 (stereo not shown) the “crop safety when other PPO inhibiting herbicides were applied” value [1] was “excellent crop safety”.

In the case of CCOC(=O)COc1ncccc1Oc1cc(-n2c(=O)cc(C(F)(F)F)n(C)c2=O)c(F)cc1Cl [Epyrifenacil, [3-[2-chloro-4-fluoro-5-(1-methyl-6-trifluoromethyl-2,4-dioxo-1,2,3,4-tetrahydropyrimidin-3-yl)phenoxy]-2-pyridyloxy] ethyl acetate], the “crop safety when other PPO inhibiting herbicides were applied” value [1] is reported as “excellent crop safety”.

For Cc1nn(-c2cc(CC(Cl)C(=O)O)c(Cl)cc2F)c(=O)n1C(F)F (stereo not shown) [carfentrazone], the “crop safety when other PPO inhibiting herbicides were applied” value [1] was “excellent crop safety”.

C#CCN1C(=O)COc2cc(F)c(N3C(=O)C4=C(CCCC4)C3=O)cc21 [flumioxazin] was tested, and the “tolerance of L422M/F442M overexpression relative to overexpression of the wild type PPO2” value [2] was “stronger tolerance”, the “resistance of plants at higher application concentrations” value [2, 3] was “still exhibited resistance” and the “resistance of plants at higher application concentrations” value ([2]; overexpressing OsPPO2 WT) was “no difference from the wild-type Arabidopsis thaliana controls”. The “tolerance/resistance of plants compared with wild-type Arabidopsis thaliana” value [2] was “certain tolerance/resistance” and the “crop safety when other PPO inhibiting herbicides were applied” value [1] was “excellent crop safety”.

In the case of CS(=O)(=O)NC(=O)c1cc(Oc2ccc(C(F)(F)F)cc2Cl)ccc1[N+](=O)[O-] [fomesafen], the “crop safety when other PPO inhibiting herbicides were applied” value [1] is reported as “excellent crop safety”.

With CCOc1cc(Oc2ccc(C(F)(F)F)cc2Cl)ccc1[N+](=O)[O-] [oxyfluorfen] the “crop safety when other PPO inhibiting herbicides were applied” value [1] was “excellent crop safety”.

C#CCN(C)c1c(C#N)cnn1-c1nn2c(c1Cl)CCCC2 [pyraclonil] was tested, and the “crop safety when other PPO inhibiting herbicides were applied” value [1] was “excellent crop safety”.

CC(C)N(C)S(=O)(=O)NC(=O)c1cc(-n2c(=O)cc(C(F)(F)F)n(C)c2=O)c(F)cc1Cl [saflufenacil] was tested, and the “tolerance of L422M/F442M overexpression relative to overexpression of the wild type PPO2” value [2] was “stronger tolerance”, the “resistance of plants at higher application concentrations” value [2, 3] was “still exhibited resistance” and the “resistance of plants at higher application concentrations” value ([2]; overexpressing OsPPO2 WT) was “no difference from the wild-type Arabidopsis thaliana controls”. For the same compound, the “tolerance/resistance of plants compared with wild-type Arabidopsis thaliana” value [2] was “certain tolerance/resistance” and the “crop safety when other PPO inhibiting herbicides were applied” value [1] was “excellent crop safety”.

In the case of Cc1nn(-c2cc(NS(C)(=O)=O)c(Cl)cc2Cl)c(=O)n1C(F)F [sulfentrazone], the “crop safety when other PPO inhibiting herbicides were applied” value [1] is reported as “excellent crop safety”.

COC(=O)CCNC(=O)C(C)Sc1cc(-n2c(=O)cc(C(F)(F)F)n(C)c2=O)c(F)cc1Cl (stereo not shown) [tiafenacil] was tested, and the “crop safety when other PPO inhibiting herbicides were applied” value [1] was “excellent crop safety”.

In the case of C#CCN1C(=O)C(F)(F)Oc2cc(F)c(-n3c(=O)n(C)c(=S)n(C)c3=O)cc21 [trifludimoxazin], the “crop safety when other PPO inhibiting herbicides were applied” value [1] is reported as “excellent crop safety”.
